The target of the experiment is β-glucosidase B (BglB) (Paenibacillus polymyxa, UniProt P22505). Description: hydrolysis monitored at […] nm, Michaelis-Menten nonlinear fit. The format is biochemical. The settings on record: 0-100 mM substrate, 15 min.
Sequence of β-glucosidase B (BglB) (P22505 whole entry): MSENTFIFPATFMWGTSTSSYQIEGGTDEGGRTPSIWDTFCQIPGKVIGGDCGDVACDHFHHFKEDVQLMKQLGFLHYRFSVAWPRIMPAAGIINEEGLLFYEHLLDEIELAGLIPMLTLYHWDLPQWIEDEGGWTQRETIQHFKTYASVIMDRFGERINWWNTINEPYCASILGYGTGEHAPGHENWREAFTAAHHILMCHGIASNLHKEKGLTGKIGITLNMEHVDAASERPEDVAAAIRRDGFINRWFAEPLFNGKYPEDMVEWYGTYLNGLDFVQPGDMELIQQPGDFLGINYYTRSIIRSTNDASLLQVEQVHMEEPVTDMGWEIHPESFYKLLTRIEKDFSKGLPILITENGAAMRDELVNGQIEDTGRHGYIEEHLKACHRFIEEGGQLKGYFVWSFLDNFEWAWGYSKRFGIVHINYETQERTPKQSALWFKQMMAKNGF

Broadly, the Km is the concentration of substrate that gives half-maximal velocity. `O=[N+]([O-])c1ccc(O[C@@H]2O[C@H](CO)[C@@H](O)[C@H](O)[C@H]2O)cc1` [pPNG, 4-nitrophenyl-β-D-glucopyranoside]: the Km is 5 ± 0.3 mM.
